These results are taken from patent US20230002357A1, “7-PYRIMIDINE-2-YL-OXY-INDAZOLE DERIVATIVES AND THEIR USE AS HERBICIDES” (SYNGENTA CROP PROTECTION AG, priority 2019, published 2023).

Format in all cases: in vivo
Conditions in all cases: 250 g/ha, evaluated after 13 days

The subject of test [1] is Setaria faberi (SETFA). Put plainly: Post-emergence Test, glasshouse, SETFA. Put shortly: (§1)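 Pots of standard soil were sown and sprayed 1 day (pre-emergence) or 8 days (post-emergence) after sowing with compound in acetone/water (50:50) containing 0.5% Tween 20, at 250 g/ha unless otherwise stated. Glasshouse conditions were 24/16 °C day/night, 14 h light, 65% humidity. Percentage damage was assessed after 13 days and scored 1–5 (5=81-100%, 1=0-20%).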

For test [2], the system named is Amaranthus retoflexus (AMARE). Kind of test: Pre-emergence Test, glasshouse, AMARE. Put shortly: as §1
The test system of test [3] is Echinochloa crus-galli (ECHCG). Put plainly: Post-emergence Test, glasshouse, ECHCG. The method in brief:
as §1

Test [4] concerns ABUTH. Kind of test: Pre-emergence Test, glasshouse, ABUTH. The method in brief: as §1
Test [5] deals with ABUTH. Kind of test: Post-emergence Test, glasshouse, ABUTH. Put shortly:
as §1

Test [6] has as its system Echinochloa crus-galli (ECHCG). Kind of test: Pre-emergence Test, glasshouse, ECHCG. Put shortly:
as §1

The test system of test [7] is IPOHE. Kind of test: Pre-emergence Test, glasshouse, IPOHE. The method in brief: as §1
The test system of test [8] is Setaria faberi (SETFA). Put plainly: Pre-emergence Test, glasshouse, SETFA. Put shortly: as §1
Test [9] relates to Amaranthus retoflexus (AMARE). Kind of test: Post-emergence Test, glasshouse, AMARE. Put shortly:
as §1

Test [10] deals with IPOHE. Put plainly: Post-emergence Test, glasshouse, IPOHE. Put shortly: as §1

For `Cc1cnc(Oc2cccc3c(C(F)(F)F)nn(CCCC(F)(F)F)c23)nc1` [Compound 1.070], the “percentage damage caused to the plant, five-point scale, SETFA” value (from here on “percentage damage caused … SETFA”) in [1] is 3 (3=41-60%); in test [8] it was 4 (4=61-80%). Moreover, the entries for the “percentage damage caused to the plant, five-point scale, AMARE” value (“percentage damage caused … AMARE” for short) in test [2] and in test [9] were 5 (5=81-100%) and 3 (3=41-60%), respectively. In addition, the “percentage damage caused to the plant, five-point scale, ECHCG” value (“percentage damage caused … ECHCG” for short) in test [3] and in test [6] was 4 (4=61-80%) each time. In addition, the “percentage damage caused to the plant, five-point scale, ABUTH” value (“percentage damage caused … ABUTH” for short) in [4] was 3 (3=41-60%); in test [5], 5 (5=81-100%). Also, the “percentage damage caused to the plant, five-point scale, IPOHE” value (“percentage damage caused … IPOHE” for short) in test [7] was 1 (1=0-20%); in test [10], 3 (3=41-60%).

As to `COc1cnc(Oc2cccc3c(Cl)nn(CCCC(F)(F)F)c23)nc1` [Compound 1.048], the “percentage damage caused … SETFA” value in test [1] was 3 (3=41-60%); in [8], 5 (5=81-100%). The “percentage damage caused … AMARE” value in [2] was 4 (4=61-80%); in test [9], 5 (5=81-100%). The “percentage damage caused … ECHCG” value is 3 (3=41-60%) in test [3] and 4 (4=61-80%) in test [6]. Moreover, the figures for the “percentage damage caused … ABUTH” value in [4] and in test [5] were 2 (2=21-40%) and 4 (4=61-80%), respectively. The “percentage damage caused … IPOHE” value in test [7] is reported as 1 (1=0-20%); in test [10], 4 (4=61-80%).

With `FC(F)Cn1nc(Cl)c2cccc(Oc3ncc(Cl)cn3)c21` [Compound 1.063], the “percentage damage caused … SETFA” value in [1] and in test [8] was 2 (2=21-40%) each time. For the same molecule, the “percentage damage caused … AMARE” value in test [2] is 3 (3=41-60%); in test [9] it was 4 (4=61-80%). Besides, the “percentage damage caused … ECHCG” value in test [3] and in test [6] was 2 (2=21-40%) each time. For the same molecule, the “percentage damage caused … ABUTH” value in [4] was 2 (2=21-40%); in [5], 3 (3=41-60%). The results for the “percentage damage caused … IPOHE” value in [7] and in test [10] were 1 (1=0-20%) and 2 (2=21-40%), respectively.

As for `FCCCCn1nc(Cl)c2cccc(Oc3ncc(Cl)cn3)c21` [Compound 1.039], the “percentage damage caused … SETFA” value in test [1] was 4 (4=61-80%); in test [8], 5 (5=81-100%). The “percentage damage caused … AMARE” value in test [2] and in test [9] was 5 (5=81-100%) in each case. In addition, the “percentage damage caused … ECHCG” value in [3] is reported as 4 (4=61-80%); in [6] it was 5 (5=81-100%). The “percentage damage caused … ABUTH” value was 3 (3=41-60%) in test [4] and 4 (4=61-80%) in test [5]. Further, the “percentage damage caused … IPOHE” value in test [7] is on record as 1 (1=0-20%); in test [10], 4 (4=61-80%).

As to `COCCCn1nc(Cl)c2cccc(Oc3ncc(Cl)cn3)c21` [Compound 1.060], the “percentage damage caused … SETFA” value in [1] is recorded as 3 (3=41-60%); in [8] it was 4 (4=61-80%). Also, the “percentage damage caused … AMARE” value in [2] is given as 4 (4=61-80%); in [9], 3 (3=41-60%). Besides, the “percentage damage caused … ECHCG” value in [3] and in [6] was 4 (4=61-80%) in each case. Also, the entries for the “percentage damage caused … ABUTH” value in test [4] and in test [5] were 4 (4=61-80%) and 3 (3=41-60%), respectively. The “percentage damage caused … IPOHE” value in test [7] and in test [10] was 2 (2=21-40%) each time.

With `COc1nn(CCCC(F)(F)F)c2c(Oc3ncc(Cl)cn3)cccc12` [Compound 1.033, 7-(5-chloropyrimidin-2-yl)oxy-3-methoxy-1-(4,4,4-trifluorobutyl)indazole], the “percentage damage caused … SETFA” value in [1] and in [8] was 1 (1=0-20%) in each case. The “percentage damage caused … AMARE” value in test [2] is recorded as 2 (2=21-40%); in test [9], 1 (1=0-20%). Moreover, the “percentage damage caused … ECHCG” value in test [3] and in test [6] was 1 (1=0-20%) each time. The “percentage damage caused … ABUTH” value in test [4] and in test [5] was 1 (1=0-20%) in each case. Moreover, the “percentage damage caused … IPOHE” value in test [7] and in test [10] was 1 (1=0-20%) each time.

On to `FC(F)(F)CCCn1nnc2cc(Cl)cc(Oc3ncc(Cl)cn3)c21` [Compound 1.050], for which the “percentage damage caused … SETFA” value in [1] and in test [8] was 1 (1=0-20%) each time. The “percentage damage caused … AMARE” value is recorded as 1 (1=0-20%) in test [2] and 5 (5=81-100%) in test [9]. Also, the “percentage damage caused … ECHCG” value in [3] and in [6] was 1 (1=0-20%) each time. For the same molecule, the results for the “percentage damage caused … ABUTH” value in test [4] and in test [5] were 1 (1=0-20%) and 2 (2=21-40%), respectively. For the same molecule, the entries for the “percentage damage caused … IPOHE” value in test [7] and in [10] were 1 (1=0-20%) and 3 (3=41-60%), respectively.

On to `CCCn1nc(Cl)c2cccc(Oc3ncc(Cl)cn3)c21` [Compound 1.061], for which the “percentage damage caused … SETFA” value in test [1] was 2 (2=21-40%); in test [8], 5 (5=81-100%). Further, the “percentage damage caused … AMARE” value in [2] is 3 (3=41-60%); in test [9] it was 4 (4=61-80%). Also, the “percentage damage caused … ECHCG” value in test [3] is 2 (2=21-40%); in [6], 4 (4=61-80%). The figures for the “percentage damage caused … ABUTH” value in [4] and in test [5] were 1 (1=0-20%) and 2 (2=21-40%), respectively. Moreover, the results for the “percentage damage caused … IPOHE” value in [7] and in test [10] were 1 (1=0-20%) and 2 (2=21-40%), respectively.

With `Fc1cc(Cl)cnc1Oc1ccc(Cl)c2cnn(CCCC(F)(F)F)c12` [Compound 1.031], the “percentage damage caused … SETFA” value in test [1] and in [8] was 1 (1=0-20%) each time. Moreover, the “percentage damage caused … AMARE” value in [2] is 1 (1=0-20%); in test [9], 4 (4=61-80%). In addition, the “percentage damage caused … ECHCG” value in test [3] and in test [6] was 1 (1=0-20%) throughout. Moreover, the “percentage damage caused … ABUTH” value in [4] and in test [5] was 1 (1=0-20%) throughout. For the same molecule, the “percentage damage caused … IPOHE” value in test [7] and in [10] was 1 (1=0-20%) each time.

In the case of `COCCn1nc(Cl)c2cccc(Oc3ncc(Cl)cn3)c21` [Compound 1.034], the “percentage damage caused … SETFA” value in test [1] is listed as 4 (4=61-80%); in test [8] it was 5 (5=81-100%). In addition, the “percentage damage caused … AMARE” value in [2] and in test [9] was 5 (5=81-100%) throughout. Further, the “percentage damage caused … ECHCG” value in test [3] was 4 (4=61-80%); in test [6], 5 (5=81-100%). The “percentage damage caused … ABUTH” value in test [4] was 2 (2=21-40%); in test [5] it was 4 (4=61-80%). The “percentage damage caused … IPOHE” value in test [7] was 3 (3=41-60%); in [10] it was 4 (4=61-80%).

In the case of `Cc1cnc(Oc2cccc3c(Cl)nn(CCCC(F)(F)F)c23)nc1` [Compound 1.049], the “percentage damage caused … SETFA” value in [1] is recorded as 4 (4=61-80%); in test [8] it was 5 (5=81-100%). In addition, the “percentage damage caused … AMARE” value is recorded as 5 (5=81-100%) in [2] and 4 (4=61-80%) in test [9]. Moreover, the “percentage damage caused … ECHCG” value in test [3] and in test [6] was 5 (5=81-100%) each time. The “percentage damage caused … ABUTH” value in test [4] was 3 (3=41-60%); in test [5] it was 5 (5=81-100%). Further, the “percentage damage caused … IPOHE” value in [7] is reported as 1 (1=0-20%); in test [10], 3 (3=41-60%).
